Test results: patent US6656911B2, “Serine protease inhibitors” (Cortech, Inc., priority 1994, dated 2003)
pKi: −log10 of the molar value.

Columns and labels:
[1] = Blood level screening after oral dose; assay type: in vivo, Sprague-Dawley rats; settings: rat, oral gavage 10 mg/kg; for concentration at 1 h / concentration at 3 h / concentration at 6 h: male, Sprague-Dawley, plasma; for concentration at 1 h: read-out: Plasma Levels (μM) 1 hr; for concentration at 3 h: read-out: Plasma Levels (μM) 3 hr; for concentration at 6 h: read-out: Plasma Levels (μM) 6 hr
In short: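 Unfasted male Sprague-Dawley rats received 10 mg/kg by oral gavage in PEG, PEG-400 or PEG:H2O:EtOH. Plasma was solvent-extracted and the inhibitor measured by HPLC or LC/MS.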

[2] = test system: polymorphoneucleocyte (PMN); experiment: Extracellular Matrix (ECM) degradation assay; assay type: cell-based; settings: PMN's stimulated with opsonized zymosan, 4 hr at 37° C.; for ECM DATA % Inhibition 1 uM / inhibition at 1 µM: 1 uM inhibitor; for ECM DATA % Inhibition 5 uM / inhibition at 5 µM: 5 uM inhibitor
In short: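 Radiolabelled ([35S]sulfate/[3H]proline) ECM from R22 rat smooth muscle cells preincubated 30 min with 1 or 5 uM inhibitor in HBSS (<2% DMSO). PMNs (5×10^5/well) stimulated with serum-opsonized zymosan (10 particles/PMN), 4 h at 37 °C. Degradation = released over total ECM counts, minus PMN-free basal release.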

[3] = molecular target: T1, human neutrophil elastase (HNE) (Homo sapiens, UniProt P08246); experiment: HNE Ki of CE compounds, tested as described in WO 96/16080; assay type: biochemical; settings: read-out: HNE Ki
T1 sequence (P08246 30-267): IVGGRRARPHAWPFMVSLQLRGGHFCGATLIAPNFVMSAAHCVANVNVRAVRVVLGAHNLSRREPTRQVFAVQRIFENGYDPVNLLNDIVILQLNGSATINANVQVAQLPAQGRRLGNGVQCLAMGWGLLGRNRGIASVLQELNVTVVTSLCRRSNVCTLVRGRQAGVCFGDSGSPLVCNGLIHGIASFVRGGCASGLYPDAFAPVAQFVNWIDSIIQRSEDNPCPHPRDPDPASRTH

With CC(C)[C@H](NC(=O)CN1C(=O)NC(c2ccccc2)(c2ccccc2)C1=O)C(=O)c1nnc(Cc2ccc3c(c2)OCO3)o1 [CE2259, 4,4-Diphenyl-2,5-imidazolidinedione-N-[1-(2-[5-(3,4-methylenedioxybenzyl)-1,3,4-oxadiazolyl]carbonyl)-2-(S)-methylpropyl]acetamide] the “Plasma Levels (μM) 1 hr” value [1] was 0.597 µM, the “Plasma Levels (μM) 3 hr” value [1] was 0.846 µM and the “Plasma Levels (μM) 6 hr” value [1] was 0.502 µM. For the same compound, the “ECM DATA % Inhibition 1 uM” value [2] was 43%, the “ECM DATA % Inhibition 5 uM” value [2] was 59.6% and the pKi [3] was 8.48.
With Cc1cccc(Cc2nnc(C(=O)[C@@H](NC(=O)Cn3c(-c4ccc(F)cc4)ccc(N)c3=O)C(C)C)o2)c1 [CE2251, 2-[5-Amino-6-oxo-2-(4-fluorophenyl)-1,6-dihydro-1-pyridinyl]-N-[1-(2-[5-(3-methylbenzyl)-1,3,4-oxadiazolyl]carbonyl)-2-(S)-methylpropyl]acetamide] the “Plasma Levels (μM) 1 hr” value [1] was 1.63 µM, the “Plasma Levels (μM) 3 hr” value [1] was 1.11 µM and the “Plasma Levels (μM) 6 hr” value [1] was 0.73 µM. For the same compound, the “ECM DATA % Inhibition 1 uM” value [2] was 54.1%, the “ECM DATA % Inhibition 5 uM” value [2] was 74.5% and the pKi [3] was 9.37.
With “2-[(4-Fluorophenyl)-1,6-dihydro-1-pyrimidinyl]-N-[1-(2-[5-(3-methylbenzyl)-1,3,4-oxadiazolyl]carbonyl)-2-(S)-methylpropyl]acetamide [CE2254]” the “Plasma Levels (μM) 1 hr” value [1] was 1.751 µM, the “Plasma Levels (μM) 3 hr” value [1] was 1.575 µM and the “Plasma Levels (μM) 6 hr” value [1] was 2.316 µM. For the same compound, the “ECM DATA % Inhibition 1 uM” value [2] was 57.2%, the “ECM DATA % Inhibition 5 uM” value [2] was 58.4% and the pKi [3] was 8.62.
With Cc1cccc(Cc2nnc(C(=O)[C@@H](NC(=O)CN3C(=O)N[C@H](Cc4c[nH]c5ccccc45)C3=O)C(C)C)o2)c1 [CE2243, 4-(R)-(3-Indolemethylene)-2,5-imidazolidinedione-N-[1-(2-[5-(3-methylbenzyl)-1,3,4-oxadiazolyl]carbonyl)-2-(S)-methylpropyl]acetamide] the “Plasma Levels (μM) 1 hr” value [1] was 2.801 µM, the “Plasma Levels (μM) 3 hr” value [1] was 2.104 µM and the “Plasma Levels (μM) 6 hr” value [1] was 1.598 µM. The “ECM DATA % Inhibition 1 uM” value [2] was 48%, the “ECM DATA % Inhibition 5 uM” value [2] was 54.9% and the pKi [3] was 7.96.
Compound Cc1cccc(Cc2nnc(C(=O)C(NC(=O)CN3C(=O)C(N)N=C(c4ccc(Cl)cc4)c4ccccc43)C(C)C)o2)c1 [CE2224, (R,S)-3-Amino-2-oxo-5-(4-chlorophenyl)-1,4-benzodiazepine-N-[1-(2-[5-(3-methylbenzyl)-1,3,4-oxadiazolyl]carbonyl)-2-(R,S)-methylpropyl]acetamide] has a concentration at 1 h [1] of 1.84 µM, a concentration at 3 h [1] of 1.94 µM and a concentration at 6 h [1] of 1.96 µM. The inhibition at 1 µM [2] was 43.2%, the inhibition at 5 µM [2] was 66.8% and the pKi [3] was 9.00.
For Cc1cccc(Cc2nnc(C(=O)[C@@H](NC(=O)CN3C(=O)CN=C(C4CCNCC4)c4ccccc43)C(C)C)o2)c1 [CE2233, 2-Oxo-5-(4-piperidinyl)-1,4-benzodiazepine-N-[1-(2-[5-(3-methylbenzyl)-1,3,4-oxadiazolyl]carbonyl)-2-(S)-methylpropyl]acetamide], the concentration at 1 h [1] was 0.07 µM, the concentration at 3 h [1] was 0.065 µM and the concentration at 6 h [1] was 0.036 µM. The inhibition at 1 µM [2] was 54.7%, the inhibition at 5 µM [2] was 55.4% and the pKi [3] was 7.38.
For Cc1cccc(Cc2nnc(C(=O)[C@@H](NC(=O)CN3C(=O)CN=C(c4ccccc4)c4ccccc43)C(C)C)o2)c1 [CE2157], the concentration at 3 h [1] was 3.81 µM, the inhibition at 1 µM [2] was 9.96% and the inhibition at 5 µM [2] was 13.4%. For the same compound, the pKi [3] was 8.85.
Cc1cccc(Cc2nnc(C(=O)[C@@H](NC(=O)Cn3c(-c4ccccc4)ncc(N)c3=O)C(C)C)o2)c1 [CE2260, 2-[5-Amino-6-oxo-2-phenyl-1,6-dihydro-1-pyrimidinyl]-N-[1-(2-[5-(3-methylbenzyl)-1,3,4-oxadiazolyl]carbonyl)-2-(S)-methylpropyl]acetamide] showed a concentration at 1 h [1] of 3.53 µM, a concentration at 3 h [1] of 3.05 µM and a concentration at 6 h [1] of 1.89 µM. It also gave an inhibition at 1 µM [2] of 68.3%, an inhibition at 5 µM [2] of 59.7% and a pKi [3] of 9.41.
Cc1cccc(Cc2nnc(C(=O)[C@@H](NC(=O)CN3C(=O)NC4(Cc5ccccc5C4)C3=O)C(C)C)o2)c1 [CE2253, 4-Spiro-(2-indanyl)-2,5-imidazolidinedione-N-[1-(2-[5-(3-methylbenzyl)-1,3,4-oxadiazolyl]carbonyl)-2-(S)-methylpropyl]acetamide] showed a concentration at 1 h [1] of 0.282 µM, a concentration at 3 h [1] of 0.246 µM and a concentration at 6 h [1] of 0.163 µM. The inhibition at 1 µM [2] was 31.9%, the inhibition at 5 µM [2] was 45.9% and the pKi [3] was 7.96.
With Cc1cccc(Cc2nnc(C(=O)[C@@H](NC(=O)CN3C(=O)CNC3=O)C(C)C)o2)c1 [CE2238, 2,5-Imidazolidinedione-N-[1-(2-[5-(3-methylbenzyl)-1,3,4-oxadiazolyl]carbonyl)-2-(S)-methylpropyl]acetamide] the concentration at 1 h [1] was 2.57 µM, the concentration at 3 h [1] was 1.74 µM and the concentration at 6 h [1] was 1.03 µM. It also gave an inhibition at 1 µM [2] of 10.1%, an inhibition at 5 µM [2] of 18.8% and a pKi [3] of 6.79.
With Cc1cccc(Cc2nnc(C(=O)[C@@H](NC(=O)[C@@H]3CCCN3C(=O)[C@@H](NS(C)(=O)=O)C(C)C)C(C)C)o2)c1 [CE2163, Methylsulfonyl-L-valyl-N-[1-(2-[5-(3-methylbenzyl)-1,3,4-oxadiazolyl]carbonyl)-2-(S)-methylpropyl]-L-prolinamide] the concentration at 3 h [1] was 0.316 µM, the inhibition at 1 µM [2] was 54.7% and the inhibition at 5 µM [2] was 64%. The pKi [3] was 9.12.
For CC(C)[C@H](NC(=O)CN1C(=O)N[C@H](Cc2ccc(O)cc2)C1=O)C(=O)c1nnc(Cc2ccc3c(c2)OCO3)o1 [CE2256, 4-(R)-(4-Hydroxybenzyl)-2,5-imidazolidinedione-N-[1-(2-[5-(3,4-methylenedioxybenzyl)-1,3,4-oxadiazolyl]carbonyl)-2-(S)-methylpropyl]acetamide], the “Plasma Levels (μM) 1 hr” value [1] was 0.9 µM, the “Plasma Levels (μM) 3 hr” value [1] was 0.33 µM and the “Plasma Levels (μM) 6 hr” value [1] was 0.2 µM. For the same compound, the “ECM DATA % Inhibition 1 uM” value [2] was 24%, the “ECM DATA % Inhibition 5 uM” value [2] was 47.8% and the pKi [3] was 7.80.
Cc1cccc(Cc2nnc(C(=O)C(NC(=O)C3Cc4cccc5c4N3C(=O)C(N)CC5)C(C)C)o2)c1 [CE2130, (2S,5S)-5-Amino-1,2,4,5,6,7-hexahydroazepino-[3,2,1]-indole-4-one-carbonyl-N-[1-(2-[5-(3-methylbenzyl)-1,3,4-oxadiazolyl]carbonyl)-(R,S)-2-methylpropyl]amide] showed a concentration at 3 h [1] of 0.162 µM, an inhibition at 1 µM [2] of 16.3% and an inhibition at 5 µM [2] of 29%. For the same compound, the pKi [3] was 8.68.
Compound Cc1cccc(Cc2nnc(C(=O)[C@@H](NC(=O)CN3C(=O)CN=C(c4ccc(C(F)(F)F)cc4)c4ccccc43)C(C)C)o2)c1 [CE2237, 2-Oxo-5-(4-trifluoromethylphenyl)-1,4 benzodiazepine-N-[1-(2-[5-(3-methylbenzyl)-1,3,4-oxadiazolyl]carbonyl)-2-(S)-methylpropyl]acetamide] has a concentration at 1 h [1] of 1.02 µM, a concentration at 3 h [1] of 1.8 µM and a concentration at 6 h [1] of 0.84 µM. It also gave an inhibition at 1 µM [2] of 34.6%, an inhibition at 5 µM [2] of 42.6% and a pKi [3] of 8.52.
With Cc1cccc(Cc2nnc(C(=O)[C@@H](NC(=O)CN3C(=O)N[C@H](CC(=O)N(C)C)C3=O)C(C)C)o2)c1 [CE2247, 4-(R)-(2-N,N-Dimethylcarboxamido)-2,5-imidazolidinedione-N-[1-(2-[5-(3-methylbenzyl)-1,3,4-oxadiazolyl]carbonyl)-2-(S)-methylpropyl]acetamide] the “Plasma Levels (μM) 1 hr” value [1] was 1.017 µM, the “Plasma Levels (μM) 3 hr” value [1] was 0.572 µM and the “Plasma Levels (μM) 6 hr” value [1] was 0.186 µM. The “ECM DATA % Inhibition 1 uM” value [2] was 13.3%, the “ECM DATA % Inhibition 5 uM” value [2] was 21.2% and the pKi [3] was 7.20.
In the case of COC(=O)CCC[C@H]1NC(=O)N(CC(=O)N[C@H](C(=O)c2nnc(Cc3cccc(C)c3)o2)C(C)C)C1=O [CE2249, 4-(R)-(3-Carbomethoxy)propyl-2,5-imidazolidinedione-N-[1-(2-[5-(3-methylbenzyl)-1,3,4-oxadiazolyl]carbonyl)-2-(S)-methylpropyl]acetamide], the “Plasma Levels (μM) 1 hr” value [1] was 1.179 µM, the “Plasma Levels (μM) 3 hr” value [1] was 0.704 µM and the “Plasma Levels (μM) 6 hr” value [1] was 0.213 µM. For the same compound, the “ECM DATA % Inhibition 1 uM” value [2] was 22.4%, the “ECM DATA % Inhibition 5 uM” value [2] was 42.4% and the pKi [3] was 7.89.
In the case of Cc1cccc(Cc2nnc(C(=O)[C@@H](NC(=O)CN3C(=O)N[C@@H](C(C)C)C3=O)C(C)C)o2)c1 [CE2240, 4-(S)-(2-Isopropyl)-2,5-imidazolidinedione-N-[1-(2-[5-(3-methylbenzyl)-1,3,4-oxadiazolyl]carbonyl)-2-(S)-methylpropyl]acetamide], the “Plasma Levels (μM) 1 hr” value [1] was 1.12 µM, the “Plasma Levels (μM) 3 hr” value [1] was 0.5 µM and the “Plasma Levels (μM) 6 hr” value [1] was 0.29 µM. The “ECM DATA % Inhibition 1 uM” value [2] was 16.8%, the “ECM DATA % Inhibition 5 uM” value [2] was 13.5% and the pKi [3] was 7.52.
With Cc1cccc(Cc2nnc(C(=O)C(NC(=O)CN3C(=O)NC(c4ccccc4)C3=O)C(C)C)o2)c1 [CE2149, 5-(R,S)-Phenyl-2,4-imidazolidinedione-N-[1-(2-[5-(3-methylbenzyl)-1,3,4-oxadiazolyl]carbonyl)-2-(S)-methylpropyl]acetamide] the concentration at 1 h [1] was 0 µM, the concentration at 3 h [1] was 0 µM and the concentration at 6 h [1] was 0 µM. The inhibition at 1 µM [2] was 51.3%, the inhibition at 5 µM [2] was 55.9% and the pKi [3] was 9.55.
